The values that follow come from ChEMBL document CHEMBL1127091, “Design of 5-(3,5-di-tert-butyl-4-hydroxyphenyl)-1,3,4-thiadiazoles, -1,3,4-oxadiazoles, and -1,2,4-triazoles as orally-active, nonulcerogenic antiinflammatory agents” (J Med Chem, 1993).

A short description of data set [1]: Partition coefficient (logP). In kind it is physicochemical. Particulars: octanol/water.
Data set [2] concerns the target T1, Polyunsaturated fatty acid 5-lipoxygenase (Rattus norvegicus, UniProt P12527).
T1 sequence (P12527 whole entry): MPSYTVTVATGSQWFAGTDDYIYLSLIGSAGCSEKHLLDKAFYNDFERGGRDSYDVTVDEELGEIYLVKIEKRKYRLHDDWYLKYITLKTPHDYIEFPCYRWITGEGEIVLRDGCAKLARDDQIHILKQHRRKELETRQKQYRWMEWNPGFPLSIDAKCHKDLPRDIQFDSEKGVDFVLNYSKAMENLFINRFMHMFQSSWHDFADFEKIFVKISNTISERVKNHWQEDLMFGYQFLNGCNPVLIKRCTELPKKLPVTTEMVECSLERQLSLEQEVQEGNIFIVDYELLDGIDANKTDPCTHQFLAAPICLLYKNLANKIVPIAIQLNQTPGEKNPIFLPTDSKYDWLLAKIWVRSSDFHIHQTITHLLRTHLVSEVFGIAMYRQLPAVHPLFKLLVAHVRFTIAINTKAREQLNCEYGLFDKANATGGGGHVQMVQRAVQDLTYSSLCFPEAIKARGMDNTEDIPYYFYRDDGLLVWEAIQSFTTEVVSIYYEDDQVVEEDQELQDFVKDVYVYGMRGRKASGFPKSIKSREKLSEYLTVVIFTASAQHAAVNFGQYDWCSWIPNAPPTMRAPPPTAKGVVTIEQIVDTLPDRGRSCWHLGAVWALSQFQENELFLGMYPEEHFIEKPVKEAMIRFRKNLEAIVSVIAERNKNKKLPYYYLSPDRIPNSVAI
Description: Inhibition of 5-lipoxygenase measured by the reduction of leukotriene B4 (LTB4) in intact basophilic rat leukemia cells

In the next data set the target is T2, Cyclooxygenase (Rattus norvegicus, UniProt P35355+Q63921).
T2 sequence (P35355 whole entry): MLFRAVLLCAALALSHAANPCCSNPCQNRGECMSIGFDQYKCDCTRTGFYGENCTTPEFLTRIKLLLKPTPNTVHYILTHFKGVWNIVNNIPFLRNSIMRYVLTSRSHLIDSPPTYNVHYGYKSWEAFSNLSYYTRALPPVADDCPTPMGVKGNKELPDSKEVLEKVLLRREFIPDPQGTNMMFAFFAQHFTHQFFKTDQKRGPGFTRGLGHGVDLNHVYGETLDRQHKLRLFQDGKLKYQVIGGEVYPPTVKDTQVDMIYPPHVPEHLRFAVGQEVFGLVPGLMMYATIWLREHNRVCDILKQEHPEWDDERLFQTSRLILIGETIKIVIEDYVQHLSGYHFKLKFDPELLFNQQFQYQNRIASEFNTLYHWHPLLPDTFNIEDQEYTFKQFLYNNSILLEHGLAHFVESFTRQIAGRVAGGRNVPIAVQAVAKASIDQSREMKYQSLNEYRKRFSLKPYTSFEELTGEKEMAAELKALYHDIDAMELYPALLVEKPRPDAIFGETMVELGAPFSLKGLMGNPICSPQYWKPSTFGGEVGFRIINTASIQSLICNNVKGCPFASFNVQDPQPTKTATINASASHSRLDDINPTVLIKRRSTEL
T2 sequence (Q63921 whole entry): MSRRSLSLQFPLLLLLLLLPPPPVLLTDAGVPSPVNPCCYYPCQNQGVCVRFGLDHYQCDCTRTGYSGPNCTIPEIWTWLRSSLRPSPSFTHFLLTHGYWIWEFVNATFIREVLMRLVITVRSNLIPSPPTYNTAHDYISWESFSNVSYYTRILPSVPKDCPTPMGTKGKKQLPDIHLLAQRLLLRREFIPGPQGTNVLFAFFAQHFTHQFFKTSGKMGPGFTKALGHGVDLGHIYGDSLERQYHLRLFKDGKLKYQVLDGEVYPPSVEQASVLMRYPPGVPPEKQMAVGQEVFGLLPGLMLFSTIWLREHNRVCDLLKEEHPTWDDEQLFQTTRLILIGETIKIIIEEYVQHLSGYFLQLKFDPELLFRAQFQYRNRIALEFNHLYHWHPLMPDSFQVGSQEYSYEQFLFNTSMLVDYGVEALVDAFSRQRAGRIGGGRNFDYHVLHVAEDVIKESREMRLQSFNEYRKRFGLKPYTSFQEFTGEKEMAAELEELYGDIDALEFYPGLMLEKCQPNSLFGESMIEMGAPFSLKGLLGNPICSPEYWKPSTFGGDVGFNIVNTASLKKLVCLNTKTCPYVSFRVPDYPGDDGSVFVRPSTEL

The test system of data set [3] is Rattus norvegicus. The experiment in a line: In vivo inflammatory activity measured on Carrageenan foot-pad edema (CFE) in rats, peroral administration. In kind it is functional. For orientation: Carrageenan injected into the paw causes an acute inflammation.
For data set [4], the system named is Rattus norvegicus. The experiment in a line: In vivo inflammatory activity measured on Gastric ulcerogenicity, expressed as percent rats with ulcers at 200 mg/kg, po (n= 10 rats per experimental group). It is filed as functional, Stomach.
The test system of data set [5] is Rattus norvegicus. The experiment in a line: In vivo inflammatory activity measured on Mycobacterium foot-pad edema (MFE) model, peroral administration. In kind it is functional.
Data set [6] concerns the target T1, Polyunsaturated fatty acid 5-lipoxygenase. This is another data set of the same source.
Description: Tested for inhibition of 5-LO by measuring the reduction of leukotriene B4 (LTB4) in intact basophilic rat leukemia cells
Data set [7] relates to Rattus norvegicus. In words: In vivo inflammatory activity measured on Gastric ulcerogenicity (n= 10 rats per experimental group). It is filed as functional, Stomach.
In data set [8] the test system is Rattus norvegicus. In words: In vivo inflammatory activity measured on Gastric ulcerogenicity, expressed as percent rats with ulcers at 10 mg/kg, po (n= 10 rats per experimental group). In kind it is functional, Stomach.
Data set [9] deals with Rattus norvegicus. The experiment in a line: In vivo inflammatory activity measured on Mycobacterium foot-pad edema (MFE) model. It is filed as functional.
Data set [10] deals with Rattus norvegicus. In words: In vivo inflammatory activity measured on Gastric ulcerogenicity, (n= 10 rats per experimental group). It is filed as functional, Stomach.

A value given as a limit tells only on which side of the number the result lay.

Description for Cyclooxygenase: Inhibition of prostaglandin G/H synthase by measuring the reduction of prostaglandin F2-alpha in intact basophilic rat leukemia cells

In data set [1], `CC(C)(C)c1cc(-c2n[nH]c(N)n2)cc(C(C)(C)C)c1O` had a logP of 3.1. The IC50 was 5.1 µM in [2] and over 30 µM against Cyclooxygenase.
In data set [1], `CC(C)(C)c1cc(-c2nnc(N)o2)cc(C(C)(C)C)c1O` registered a logP of 3.7. Also, the values for the IC50 (in data set [2]; against Cyclooxygenase) were 0.7 µM and 2.4 µM, respectively. In addition, the ID40 in the data set on Rattus norvegicus [3] stood at 8.2 mg/kg.
`CC(C)(C)c1cc(-c2n[nH]c(=S)s2)cc(C(C)(C)C)c1O.C[N+](C)(C)CCO` registered a logP in data set [1] of 2.7. The compound further displayed an Activity in the data set with Rattus norvegicus [4] of 0%. The results for the ID40 in the data set with Rattus norvegicus [5] and in the data set with Rattus norvegicus [3] were 7.8 mg/kg and 1.1 mg/kg, respectively.
On to `CC(C)(C)c1cc(-c2n[nH]c(O)n2)cc(C(C)(C)C)c1O`, for which, in data set [1], the lipophilicity (logP) stood at 3.1. Further, the IC50 against Cyclooxygenase was 5.5 µM.
Compound `Cc1cc(/C=C/c2cc(C(C)(C)C)c(O)c(C(C)(C)C)c2)on1` came in with a logP in data set [1] of over 4. In the data set with Rattus norvegicus [5], this compound came in with an ID40 of 33 mg/kg.
For `Cn1c(S)nnc1-c1cc(C(C)(C)C)c(O)c(C(C)(C)C)c1`, the logP in data set [1] stood at 3.7. The IC50 (in data set [2]; at Cyclooxygenase) was over 32 µM each time.
`CC(C)(C)c1cc(/C=C/c2nnc(O)o2)cc(C(C)(C)C)c1O` displayed a logP in data set [1] of 3.4. Moreover, the values for the IC50 (in [2]; against Cyclooxygenase) were 0.21 µM and over 32 µM, respectively.
Compound `Cn1c(O)nnc1-c1cc(C(C)(C)C)c(O)c(C(C)(C)C)c1` returned a logP in data set [1] of 3.2.
`CC(C)(C)c1cc(-c2n[nH]c(S)n2)cc(C(C)(C)C)c1O` had a logP in data set [1] of 2.4. Also, the IC50 turned out to be 11 µM in data set [2] and 0.78 µM on Cyclooxygenase.
In the same order, the values of `CSc1nnc(-c2cc(C(C)(C)C)c(O)c(C(C)(C)C)c2)s1` are over 4, 1.2 µM and 0.41 µM.
In data set [1], `CC(C)(C)c1cc(/C=C/c2n[nH]c(O)n2)cc(C(C)(C)C)c1O` yielded a lipophilicity (logP) of 3.8. For the same compound, the IC50 in [2] was 1.6 µM; on Cyclooxygenase it was over 32 µM.
For `CC(C)(C)c1cc(/C=C/c2nnc(N)o2)cc(C(C)(C)C)c1O`, the values for the IC50 (in [2]; at Cyclooxygenase) were 1.1 µM and 8 µM, respectively.
In the case of `CC(C)(C)c1cc(-c2nnc(O)s2)cc(C(C)(C)C)c1O`, the logP in data set [1] was 4. Further, the IC50 in [2] is 5.9 µM; against Cyclooxygenase, over 16 µM.
For the compound `COc1c(C(C)(C)C)cc(-c2nnc(S)s2)cc1C(C)(C)C`, the IC50 amounted to 0.35 µM against Cyclooxygenase and 0.92 µM in [6].
Turning to `CC(C)(C)c1cc(-c2nnc(O)o2)cc(C(C)(C)C)c1O`, the logP in data set [1] was 3.4. Also, on Cyclooxygenase, the IC50 worked out at 2.5 µM.
`Cn1nc(-c2cc(C(C)(C)C)c(O)c(C(C)(C)C)c2)sc1=S`: the IC50 against Cyclooxygenase is 0.65 µM; in data set [6] it was 5 µM.
Regarding `CC(C)(C)c1cc(/C=C/c2nnc(S)o2)cc(C(C)(C)C)c1O`, the logP in data set [1] was 3. For the same compound, the IC50 was determined as 0.58 µM in [2] and 9.4 µM on Cyclooxygenase.
On to `CC(C)(C)c1cc(-c2nnc(S)n2N)cc(C(C)(C)C)c1O`, for which the logP in data set [1] stood at 3.3. Also, the IC50 (in data set [2]; on Cyclooxygenase) was over 32 µM in each case.
For `CSc1nnc(/C=C/c2cc(C(C)(C)C)c(O)c(C(C)(C)C)c2)s1`, the IC50 (in [2]; against Cyclooxygenase) was over 10 µM in each case.
With `CC(C)(C)c1cc(/C=C/c2n[nH]c(S)n2)cc(C(C)(C)C)c1O`, the logP in data set [1] amounted to 3.1. For the same compound, the results for the IC50 (in [2]; on Cyclooxygenase) were 2.4 µM and 6.7 µM, respectively.
Consider `CC(C)(C)c1cc(-c2nnc(S)o2)cc(C(C)(C)C)c1O`, for which the lipophilicity (logP) in [1] stood at 2.3. Besides, the ID40 with Rattus norvegicus [5] was 59.9 mg/kg; in the data set on Rattus norvegicus [3], 3.9 mg/kg. The IC50 in data set [2] turned out to be 4.8 µM; against Cyclooxygenase it was 3.7 µM.
In turn, `CC(C)(C)c1cc(-c2nnc(N)s2)cc(C(C)(C)C)c1O` had a logP in data set [1] of 3.7. For the same compound, the Activity in the data set with Rattus norvegicus [4] amounted to 10%. Besides, the ID40 turned out to be 2.3 mg/kg with Rattus norvegicus [5] and 1.9 mg/kg with Rattus norvegicus [3]. This compound yielded a concentration for half-maximal inhibition (IC50) on Cyclooxygenase of 0.13 µM.
The compound `CC(C)(C)c1cc(/C=C2\CCOC2=O)cc(C(C)(C)C)c1O` registered a logP in data set [1] of over 4. In addition, the ID40 is 3.7 mg/kg with Rattus norvegicus [5] and over 10 mg/kg in the data set on Rattus norvegicus [3]. Moreover, the UD50 in the data set with Rattus norvegicus [7] came to 93.1 mg/kg.
In data set [1], `CC(C)(C)c1cc(/C=C/c2nnc(S)s2)cc(C(C)(C)C)c1O` gave a logP of over 4. In addition, the IC50 in data set [2] was 1.8 µM; against Cyclooxygenase, 5.2 µM.
`CON1CC/C(=C\c2cc(C(C)(C)C)c(O)c(C(C)(C)C)c2)C1=O` [E-5110] displayed a logP in [1] of over 4. The same compound returned an Activity with Rattus norvegicus [8] of 10%. In addition, the ID40 in the data set on Rattus norvegicus [9] stood at 1.9 mg/kg; with Rattus norvegicus [3] it was 24.1 mg/kg.
As to `Cc1ccc(Cl)c(Nc2ccccc2C(=O)O)c1Cl` [MECLOFENAMIC ACID], the UD50 in the data set on Rattus norvegicus [10] is 36.2 mg/kg. Moreover, the values for the ID40 in the data set with Rattus norvegicus [5] and in the data set on Rattus norvegicus [3] were 0.35 mg/kg and 5.6 mg/kg, respectively.

What is called logP is the decadic logarithm of the partition coefficient of the neutral form, usually between octanol and water. Read a low logP as lower lipophilicity. One may read the IC50 as the concentration that gives 50% inhibition. Read a high IC50 as a need for much substance.
